# Patent US20230044787A1, “TRICYCLE DIHYDROIMIDAZOPYRIMIDONE DERIVATIVE, PREPARATION METHOD THEREOF, PHARMACEUTICAL COMPOSITION AND USE THEREOF” (priority 2019, published 2023)
# Molecular target: T1, Lp-PLA2 (Homo sapiens, UniProt Q13093)
# T1 construct: aliquoted and thawed 40 μL of pooled human plasma was previously added; from tissue; host or cells: pooled human plasma
# T1 sequence (Q13093 22-441): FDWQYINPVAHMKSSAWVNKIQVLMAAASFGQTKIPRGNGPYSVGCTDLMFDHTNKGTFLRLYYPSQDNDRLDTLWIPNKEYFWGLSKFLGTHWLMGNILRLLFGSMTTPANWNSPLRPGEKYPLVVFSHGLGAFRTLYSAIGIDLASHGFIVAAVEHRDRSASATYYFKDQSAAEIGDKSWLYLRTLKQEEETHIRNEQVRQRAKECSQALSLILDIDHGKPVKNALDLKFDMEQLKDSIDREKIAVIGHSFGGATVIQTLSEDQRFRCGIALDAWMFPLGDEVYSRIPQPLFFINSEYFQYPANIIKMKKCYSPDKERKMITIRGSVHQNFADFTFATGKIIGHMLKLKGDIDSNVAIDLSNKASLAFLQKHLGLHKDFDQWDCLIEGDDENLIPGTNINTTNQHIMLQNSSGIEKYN
# Assay: Lipoprotein-associated phospholipase A2 (Lp-PLA2) human plasma assay (Thio-PAF assay)
# Assay type: biochemical
# Settings: Lp-PLA2 human plasma assay (Thio-PAF), pooled human plasma, 30-min pre-incubation at room temperature
# Experimental: Lipoprotein-Associated Phospholipase A2 (Lp-PLA2) Human Plasma Assay
# The amount of sulfhydryl groups is continuously determined by the reaction with CPM (7-diethylamino-3-(4′-maleimidophenyl)-4-methylcoumarin), and the CPM is a maleimide of which fluorescence increases after Michael addition of sulfhydryl group. This assay can detect Lp-PLA2 activity in human plasma, as determined by specific inhibition of Lp-PLA2 inhibitors.
# Thio-PAF assay was performed as quenched 75 μL assay. Compound source plate was prepared for each compound by preparing 1:3 (by volume) serial dilutions in pure DMSO in a 96-well microplate. The compound on the source plate was diluted 20-fold by transferring 3 μL of the compound from the compound source plate into a 96-well microplate pre-added with 57 μL of assay buffer by Rainin multichannel pipette. The assay buffer described above consisted of 50 mM HEPES, pH 7.4, 150 mM NaCl, 1 mM CHAPS. 1 μL of the 20-fold diluted compound was transferred by Rainin multichannel pipette into a 96-well Greiner 655076 (black) microplate to which aliquoted and thawed 40 μL of pooled human plasma was previously added. The plate was shaken for 20 seconds on a microplate shaker to mix well. After a 30-min pre-incubation at room temperature, 10 μL of substrate solution was added to the 96-well Greiner 655076 (black) microplate by Rainin multichannel pipette, in which the substrate solution contained 2.5 mM 2-thio-PAF [from ethanol stock], 32 μM CPM [from DMSO stock], and 3.2 mM NEM (N-ethylmaleimide) [freshly prepared in DMSO per experiment] in assay buffer consisting of 50 mM HEPES, pH 7.4; 150 mM NaCl; 1 mM CHAPS. After 2 min, the reaction was quenched with […] of 5% trifluoroacetic acid (TFA) in water. The plate was centrifuged at 2000 rpm for 1 minute. The plate was read at ex:380/em:485 using a Biotek Synergy H1 (H1MF) microplate reader. IC50 data, curves and QC analysis were performed using GraphPad Prism 6.0 and Excel.
row,SMILES,IC50 [nM]
1,"N#Cc1cc(COc2cc3n(c(=O)n2)CC24CCC(CC2)N34)ccc1Oc1cccc(C(F)(F)F)c1 [Example 2, 5-(((1-Oxo-7,8-dihydro-1H,6H,9H-6,8a-ethanopyrrolo[1′,2′:3,4]imidazo[1,2-c]pyrimidin-3-yl)oxy)methyl)-2-(3-(trifluoromethyl)phenoxy)benzonitrile]",2.6
2,O=c1nc(OCCc2ccc(Oc3ccnc(C(F)(F)F)c3)c(F)c2)cc2n1C[C@]13CO[C@H](CN21)C3 [Example 156],5.7
3,"O=C(NCc1ccccc1)C12CN3c4cc(OCc5ccc(Oc6ccnc(C(F)(F)F)c6)c(F)c5)nc(=O)n4CC3(C1)C2 [Example 199, N-benzyl-3-((3-fluoro-4-((2-(trifluoromethyl)pyridin-4-yl)oxy)benzyl)oxy)-1-oxo-1H,6H, 9H-7,8a-methanopyrrolo[1′,2′:3,4]imidazo [1,2-c]pyrimidine-7(8H)-carboxamide]",7.9
4,"O=c1nc(OCCc2ccc(Oc3ccc(Cl)c(C(F)(F)F)c3)c(F)c2)cc2n1CC13CC(CN21)C3 [Example 186, 3-(4-(4-chloro-3-(trifluoromethyl)phenoxy)-3-fluorophenethoxy)-7,8-dihydro-1H,6H,9H-7,8a-methanopyrrolo[1′,2′:3,4]imidazo[1,2-c] pyrimidin-1-one]",7.4
5,"O=c1nc(OCc2cc(F)c(Oc3ccnc(C(F)(F)F)c3)c(F)c2)cc2n1CC13CC(F)(CN21)C3 [Example 158, 3-((3,5-difluoro-4-((2-(trifluoromethyl)pyridin-4-yl)oxy)benzyl)oxy)-7-fluoro-7,8-dihydro-1H,6H,9H-7,8a-methanopyrrolo[1′,2′:3,4] imidazo[1,2-c]pyrimidine-1-one]",2.1
6,"Cn1cc(Oc2c(F)cc(COc3cc4n(c(=O)n3)CC3(C)CCCN43)cc2F)cn1 (centres unmarked) [Example 57, 3-((3,5-difluoro-4-((1-methyl-1H-pyrazol-4-yl)oxy)benzyl)oxy)-8a-methyl-7,8,8a,9-tetrahydro-1H,6Hpyrrolo[1′,2′:3,4] imidazo[1,2-c]pyrimidin-1-one]",62.2
7,"COc1c(CCc2ccc(Oc3ccnc(C(F)(F)F)c3)cc2)nc(=O)n2c1N1C[C@@H]3C[C@]1(CO3)C2 [Example 170, (3S,11aR)-6-Methoxy-7-(4-((2-(trifluoromethyl)pyridin-4-yl)oxy)phenethyl)-3,4-dihydro-1H,9H,11H-3,11a-methanopyrimido[6′,1′:2,3]imidazo[5,1-c] [1,4]oxazin-9-one]",178
8,"CC12CCCCN1c1cc(OCc3cc(F)c(Oc4ccnc(C(F)(F)F)c4)c(F)c3)nc(=O)n1C2 (centres unmarked) [Example 66, 3-((3,5-difluoro-4-((2-(trifluoromethyl)pyridin-4-yl)oxy)benzyl)oxy)-9a-methyl-6,7,8,9,9a,10-hexahydro-1H-pyrido[1′,2′:3,4]imidazo [1,2-c]pyrimidin-1-one]",6.9
9,O=c1nc(OCc2cc(F)c(Oc3cncc(C(F)(F)F)c3)c(F)c2)cc2n1CC13CC(CN21)C3 [Example 40],6.4
10,"Cc1cc(Oc2ccc(COc3cc4n(c(=O)n3)CC35CC(CN43)C5)cc2F)ccn1 [Example 119, 3-((3-fluoro-4-((2-methyl-pyridin-4-yl)oxy)benzyl)oxy)-7,8-dihydro-1H,6H,9H-7,8a-methanopyrrolo[1′,2′:3,4] imidazo[1,2-c]pyrimidin-1-one]",8.2
11,"O=c1nc(OCc2ccc(Oc3ccnc(C(F)(F)F)c3)c(F)c2)cc2n1CC13CC(C(F)F)(CN21)C3 [Example 139, 7-(difluoromethyl)-3-((3-fluoro-4-((2-(trifluoromethyl)pyridin-4-yl)oxy)benzyl)oxy)-7,8-dihydro-1H,6H,9H-7,8a-methanopyrrolo[1′,2′:3,4] imidazo[1,2-c]pyrimidin-1-one]",2.6
12,"N#Cc1cc(COc2cc3n(c(=O)n2)CC24CCC(CC2)N34)ccc1F [Example 163, 2-fluoro-5-(((1-oxo-7,8-dihydro-1H,6H,9H-6,8a-ethanopyrrolo[1′,2′:3,4]imidazo[1,2-c]pyrimidin-3-yl)oxy)methyl)benzonitrile]",2.4
13,O=c1nc(OCc2ccc(Oc3ccnc(C(F)(F)F)c3)c(F)c2)cc2n1C[C@@]13C[C@@H](CN21)N(CC(F)(F)F)C3 [Example 173],3.4
14,"CC12COCCN1c1cc(OCc3cc(F)c(Oc4ccc(C(F)(F)F)nc4)c(F)c3)nc(=O)n1C2 (centres unmarked) [Example 81, 7-((3,5-difluoro-4-((6-(trifluoromethyl)pyridin-3-yl)oxy)benzyl)oxy)-11a-methyl-3,4,11,11a-tetrahydro-1H,9H-pyrimido[6′,1′:2,3]imidazo [5,1-c][1,4]oxazin-9-one]",5.1
15,"Cc1cc(Oc2c(F)cc(COc3cc4n(c(=O)n3)CC3(C)COCCN43)cc2F)ccn1 (centres unmarked) [Example 79, 7-((3,5-difluoro-4-((2-methyl-pyridin-4-yl)oxy)benzyl)oxy)-11a-methyl-3,4,11,11a-tetrahydro-1H,9H-pyrimido[6′,1′:2,3]imidazo [5,1-c][1,4]oxazin-9-one]",6.1
16,"N#Cc1cc(F)cc(COc2cc3n(c(=O)n2)C[C@]24CO[C@H](CN32)C4)c1 [Example 141, 3-fluoro-5-((((3S,11aR)-9-oxo-3,4-dihydro-1H,9H,11H-3,11a-methanopyrimido[6′,1′:2,3]imidazo[5,1-c][1,4]oxazin-7-yl)oxy)methyl)benzonitrile]",6.1
17,N#Cc1cc(COc2cc3n(c(=O)n2)C[C@]24CO[C@H](CN32)C4)ccc1Oc1ccc(C(F)(F)F)cc1 [Example 21],6.4
18,N#Cc1cc(COc2cc3n(c(=O)n2)CC24CC(CN32)C4)ccc1Oc1ccc(Cl)c(C(F)(F)F)c1 [Example 41],3.9
19,"O=c1nc(OCc2cc(F)c(F)c(F)c2)cc2n1C[C@]13CO[C@H](CN21)C3 [Example 24, (3S,11aR)-7-((3,4,5-trifluorobenzyl)oxy)-3,4-dihydro-1H,9H,11H-3,11a-methanopyrimido[6′,1′:2,3] imidazo[5,1-c][1,4]oxazin-9-one]",13.2
20,"CCC12CCCN1c1cc(OCc3cc(F)c(Oc4ccnc(C(F)(F)F)c4)c(F)c3)nc(=O)n1C2 (centres unmarked) [Example 63, 3-((3,5-difluoro-4-((2-(trifluoromethyl)pyridin-4-yl)oxy)benzyl)oxy)-8a-ethyl-7,8,8a,9-tetrahydro-1H,6H-pyrrolo[1′,2′:3,4]imidazo [1,2-c]pyrimidin-1-one]",8.7
21,N#Cc1cc(COc2cc3n(c(=O)n2)CC24CC(F)(CN32)C4)ccc1F [Example 160],3.8
22,"COc1c(OCc2ccc(F)c(F)c2)nc(=O)n2c1N1C[C@@H]3C[C@]1(CO3)C2 [Example 115, (3S,11aR)-7-((3,4-difluorobenzyl)oxy)-6-methoxy-3,4-dihydro-1H,9H,11H-3,11a-methanopyrimido[6′,1′:2,3] imidazo[5,1-c][1,4]oxazin-9-one]",5.2
23,"O=c1nc(OCc2ccc(Oc3ccnc(C(F)(F)F)c3)cc2F)cc2n1C[C@]13CO[C@H](CN21)C3 [Example 96, (3S,11aR)-7-((2-difluoro-4-((2-(trifluoromethyl)pyridin-4-yl)oxy)benzyl)oxy)-3,4-dihydro-1H,9H,11H-3,11a-methanopyrimido[6′1′:2,3] imidazo[5,1-c][1,4]oxazin-9-one]",4.7
24,"O=c1nc(OCc2ccc(Oc3ccnc(C(F)(F)F)c3)c(F)c2)cc2n1C[C@@]13C[C@@H](CN21)N(Cc1ccccc1)C3 [Example 178, (3S,11aS)-2-benzyl-7-((3-fluoro-4-((2-(tri-fluoromethyl)pyridin-4-yl)oxy)benzyl)oxy)-1,2,3,4-tetrahydro-9H,11H-3,11a-methano-pyrazino[1′,2′:3,4]imidazo[1,2-c]pyrimidin-9-one]",6.2
25,"COc1c(OCc2ccc(F)c(F)c2)nc(=O)n2c1N1CC3CC1(C3)C2 [Example 150, 3-((3,4-difluorobenzyl)oxy)-4-methoxy-7,8-dihydro-1H,6H,9H-7,8a-methanopyrrolo[1′,2′:3,4] imidazo[1,2-c]pyrimidin-1-one]",4.8
26,"CC12CCCCN1c1cc(OCc3cc(F)c(Oc4cnc(C(F)(F)F)nc4)c(F)c3)nc(=O)n1C2 (centres unmarked) [Example 67, 3-((3,5-difluoro-4-((2-(trifluoromethyl)pyrimidin-5-yl)oxy)benzyl)oxy)-9a-methyl-6,7,8,9,9a,10-hexahydro-1H-pyrido[1′,2′:3,4]imidazo [1,2-c]pyrimidin-1-one]",8.7
